{"source": "ChEMBL document CHEMBL4196033", "about": "“Potent hydrazone derivatives targeting esophageal cancer cells” (Eur J Med Chem, 2018)", "key": {"[1]": {"test_system": "EC9706", "test": "Anticlonogenic activity against human EC9706 cells after 7 days by crystal violet staining based assay", "type": "functional, cell-based"}, "[2]": {"test_system": "EC9706", "test": "Cell cycle arrest in human EC9706 cells assessed as decrease in G2/M phase population at 2 uM after 24 hrs by propidium iodide staining based flow cytometry relative to control", "type": "functional"}, "[3]": {"test_system": "EC9706", "test": "Cell cycle arrest in human EC9706 cells assessed as decrease in G2/M phase population at 4 uM after 24 hrs by propidium iodide staining based flow cytometry relative to control", "type": "functional"}, "[4]": {"test_system": "EC9706", "test": "Cell cycle arrest in human EC9706 cells assessed as decrease in G2/M phase population at 8 uM after 24 hrs by propidium iodide staining based flow cytometry relative to control", "type": "functional"}, "[5]": {"test_system": "ECa-109 cell line", "test": "Cell cycle arrest in human EC109 cells assessed as accumulation at G0/G1 phase after 24 hrs by propidium iodide staining based flow cytometry", "type": "functional"}, "[6]": {"test_system": "ECa-109 cell line", "test": "Upregulation of p27 protein expression in human EC109 cells at 2 uM after 24 to 48 hrs by Western blot analysis relative to control", "type": "functional"}, "[7]": {"test_system": "ECa-109 cell line", "test": "Upregulation of p27 protein expression in human EC109 cells at 8 uM after 24 to 48 hrs by Western blot analysis relative to control", "type": "functional"}, "[8]": {"test_system": "EC9706", "test": "Induction of morphological changes in human EC9706 cells assessed as chromatin condensation after 48 hrs by Hoechst 33342 staining based fluorescence microscopic method", "type": "functional, cell-based"}, "[9]": {"test_system": "ECa-109 cell line", "test": "Induction of morphological changes in human EC109 cells assessed as chromatin condensation after 48 hrs by Hoechst 33342 staining based fluorescence microscopic method", "type": "functional, cell-based"}, "[10]": {"test_system": "EC9706", "test": "Induction of apoptosis in human EC9706 cells assessed as necrotic cells at 2 uM after 48 hrs by Annexin V-FITC/propidium iodide staining based flow cytometry (reference value: 1.1 to 1.31%)", "type": "functional"}, "[11]": {"test_system": "EC9706", "test": "Induction of apoptosis in human EC9706 cells assessed as necrotic cells at 4 uM after 48 hrs by Annexin V-FITC/propidium iodide staining based flow cytometry (reference value: 1.1 to 1.31%)", "type": "functional"}, "[12]": {"test_system": "EC9706", "test": "Induction of apoptosis in human EC9706 cells assessed as live cells at 8 uM after 48 hrs by Annexin V-FITC/propidium iodide staining based flow cytometry (reference value: 85.5 to 96%)", "type": "functional"}, "[13]": {"test_system": "EC9706", "test": "Induction of apoptosis in human EC9706 cells assessed as late apoptotic cells at 8 uM after 48 hrs by Annexin V-FITC/propidium iodide staining based flow cytometry (reference value: 1.29 to 1.99%)", "type": "functional"}, "[14]": {"test_system": "EC9706", "test": "Induction of apoptosis in human EC9706 cells assessed as necrotic cells at 8 uM after 48 hrs by Annexin V-FITC/propidium iodide staining based flow cytometry (reference value: 1.1 to 1.31%)", "type": "functional"}, "[15]": {"test_system": "ECa-109 cell line", "test": "Induction of apoptosis in human EC109 cells assessed as early apoptotic cells at 2 uM after 48 hrs by Annexin V-FITC/propidium iodide staining based flow cytometry (reference value: 0.43 to 1.15%)", "type": "functional"}, "[16]": {"test_system": "ECa-109 cell line", "test": "Induction of apoptosis in human EC109 cells assessed as live cells at 4 uM after 48 hrs by Annexin V-FITC/propidium iodide staining based flow cytometry (reference value: 95.2 to 99%)", "type": "functional"}, "[17]": {"test_system": "ECa-109 cell line", "test": "Induction of apoptosis in human EC109 cells assessed as late apoptotic cells at 4 uM after 48 hrs by Annexin V-FITC/propidium iodide staining based flow cytometry (reference value: 0.2 to 1.74%)", "type": "functional"}, "[18]": {"test_system": "ECa-109 cell line", "test": "Induction of apoptosis in human EC109 cells assessed as necrotic cells at 4 uM after 48 hrs by Annexin V-FITC/propidium iodide staining based flow cytometry (reference value: 0.74 to 1.18%)", "type": "functional"}, "[19]": {"test_system": "ECa-109 cell line", "test": "Induction of apoptosis in human EC109 cells assessed as live cells at 8 uM after 48 hrs by Annexin V-FITC/propidium iodide staining based flow cytometry (reference value: 95.2 to 99%)", "type": "functional"}, "[20]": {"test_system": "EC9706", "test": "Induction of apoptosis in human EC9706 cells assessed as early apoptotic cells at 8 uM after 48 hrs in presence of caspase inhibitor Z-VAD-FMK by Annexin V-FITC/propidium iodide staining based flow cytometry (reference value: 0.33%)", "type": "functional"}, "[21]": {"test_system": "ECa-109 cell line", "test": "Induction of apoptosis in human EC109 cells assessed as necrotic cells at 8 uM after 48 hrs in presence of caspase inhibitor Z-VAD-FMK by Annexin V-FITC/propidium iodide staining based flow cytometry (reference value: 2.37%)", "type": "functional"}, "[22]": {"test_system": "EC9706", "test": "Induction of ROS generation in human EC9706 cells at 8 uM after 24 hrs by DCFH-DA staining based flow cytometry relative to control", "type": "functional"}, "[23]": {"test_system": "EC9706", "test": "Induction of apoptosis in human EC9706 cells assessed as increase in cleaved PARP protein expression after 48 hrs by Western blot analysis", "type": "functional, cell-based"}, "[24]": {"test_system": "ECa-109 cell line", "test": "Induction of apoptosis in human EC109 cells assessed as increase in cleaved caspase-8 protein expression after 48 hrs by Western blot analysis", "type": "functional, cell-based"}, "[25]": {"test_system": "ECa-109 cell line", "test": "Induction of apoptosis in human EC109 cells assessed as increase in cleaved caspase-9 protein expression after 48 hrs by Western blot analysis", "type": "functional, cell-based"}, "[26]": {"test_system": "EC9706", "test": "Induction of apoptosis in human EC9706 cells assessed as decrease in Bcl2 protein expression after 48 hrs by Western blot analysis", "type": "functional, cell-based"}, "[27]": {"test_system": "ECa-109 cell line", "test": "Induction of apoptosis in human EC109 cells assessed as increase in Bax protein expression after 48 hrs by Western blot analysis", "type": "functional, cell-based"}, "[28]": {"test_system": "ECa-109 cell line", "test": "Induction of apoptosis in human EC109 cells assessed as increase in tBid protein expression at 2 to 8 uM after 48 hrs by Western blot analysis", "type": "functional, cell-based"}, "[29]": {"test_system": "EC9706", "test": "Induction of apoptosis in human EC9706 cells assessed as increase in tBid protein expression at 2 to 8 uM after 48 hrs by Western blot analysis", "type": "functional, cell-based"}, "[30]": {"test_system": "EC9706", "test": "Induction of apoptosis in human EC9706 cells assessed as decrease in Bid protein expression at 2 to 8 uM after 48 hrs by Western blot analysis", "type": "functional, cell-based"}, "[31]": {"test_system": "EC9706", "test": "Effect on Prxs-1 protein expression in human EC9706 cells at 2 to 8 uM after 48 hrs by Western blot analysis", "type": "functional, cell-based"}, "[32]": {"test_system": "EC9706", "test": "Effect on Prxs-3 protein expression in human EC9706 cells at 2 to 8 uM after 48 hrs by Western blot analysis", "type": "functional, cell-based"}, "[33]": {"test_system": "EC9706", "test": "Effect on Prxs-5 protein expression in human EC9706 cells at 2 to 8 uM after 48 hrs by Western blot analysis", "type": "functional, cell-based"}, "[34]": {"test_system": "ECa-109 cell line", "test": "Effect on Prxs-2 protein expression in human EC109 cells at 2 to 8 uM after 48 hrs by Western blot analysis", "type": "functional, cell-based"}, "[35]": {"test_system": "GES1", "test": "Antiproliferative activity against human GES-1 cells after 24 hrs by MTT assay", "type": "cell-based", "conditions": "GES1, 24 h"}, "[36]": {"test_system": "GES1", "test": "Antiproliferative activity against human GES-1 cells after 48 hrs by MTT assay", "type": "cell-based", "conditions": "GES1, 48 h"}, "[37]": {"test_system": "GES1", "test": "Antiproliferative activity against human GES-1 cells after 72 hrs by MTT assay", "type": "cell-based", "conditions": "GES1, 72 h"}, "[38]": {"test_system": "Mus musculus", "test": "Acute toxicity in C57BL/6 mouse assessed as change in body weight at 2 g/kg, ig measured for 2 weeks", "type": "organism-based", "conditions": "in vivo, po, 2000 mg/kg, 336 h"}, "[39]": {"test_system": "Mus musculus", "test": "Acute toxicity in C57BL/6 mouse assessed as histopathological changes in spleen at 2 g/kg, ig measured for 2 weeks by hematoxylin and eosin staining based microscopic method", "type": "organism-based", "conditions": "in vivo, po, 2000 mg/kg, 336 h"}}, "note": "Active and inactive are the calls of the source. No cut-off for these calls is given here."}
{"compound": "COc1ccc(/C=N/NC(=O)c2cccc(S(=O)(=O)N3CCOCC3)c2)c(O)c1", "values": [{"measurement": "Activity", "setting": "[1]", "result": "Active"}, {"measurement": "fold change (FC)", "setting": "[2]", "result": 0.28}, {"measurement": "fold change (FC)", "setting": "[3]", "result": 0.3}, {"measurement": "fold change (FC)", "setting": "[4]", "result": 0.26}, {"measurement": "Activity", "setting": "[5]", "result": "Dose-dependent effect"}, {"measurement": "fold change (FC)", "setting": "[6]", "result": 1.2}, {"measurement": "fold change (FC)", "setting": "[7]", "result": 1.9}, {"measurement": "Activity", "setting": "[8]", "result": "Dose-dependent effect"}, {"measurement": "Activity", "setting": "[9]", "result": "Dose-dependent effect"}, {"measurement": "Activity", "setting": "[10]", "result": 10.1, "unit": "%"}, {"measurement": "Activity", "setting": "[11]", "result": "0.48 - 16.1%"}, {"measurement": "Activity", "setting": "[12]", "result": "29.9 - 61.1%"}, {"measurement": "Activity", "setting": "[13]", "result": "25 - 33.1%"}, {"measurement": "Activity", "setting": "[14]", "result": "10.1 - 10.2%"}, {"measurement": "Activity", "setting": "[15]", "result": 13.3, "unit": "%"}, {"measurement": "Activity", "setting": "[16]", "result": "27.2 - 63.6%"}, {"measurement": "Activity", "setting": "[17]", "result": "17.4 - 31.1%"}, {"measurement": "Activity", "setting": "[18]", "result": "4.45 - 11.3%"}, {"measurement": "Activity", "setting": "[19]", "result": "25.2 - 26.7%"}, {"measurement": "Activity", "setting": "[20]", "result": 16.4, "unit": "%"}, {"measurement": "Activity", "setting": "[21]", "result": 17.6, "unit": "%"}, {"measurement": "fold change (FC)", "setting": "[22]", "result": 1.95}, {"measurement": "Activity", "setting": "[23]", "result": "Dose-dependent effect"}, {"measurement": "Activity", "setting": "[24]", "result": "Dose-dependent effect"}, {"measurement": "Activity", "setting": "[25]", "result": "Dose-dependent effect"}, {"measurement": "Activity", "setting": "[26]", "result": "Dose-dependent effect"}, {"measurement": "Activity", "setting": "[27]", "result": "Dose-dependent effect"}, {"measurement": "Activity", "setting": "[28]", "result": "Active"}, {"measurement": "Activity", "setting": "[29]", "result": "Active"}, {"measurement": "Activity", "setting": "[30]", "result": "Active"}, {"measurement": "Activity", "setting": "[31]", "result": "Active"}, {"measurement": "Activity", "setting": "[32]", "result": "Active"}, {"measurement": "Activity", "setting": "[33]", "result": "Active"}, {"measurement": "Activity", "setting": "[34]", "result": "Active"}, {"measurement": "IC50", "setting": "[35]", "result": "> 80", "unit": "µM"}, {"measurement": "IC50", "setting": "[36]", "result": "> 80", "unit": "µM"}, {"measurement": "IC50", "setting": "[37]", "result": 14.4, "unit": "µM"}, {"measurement": "Activity", "setting": "[38]", "result": "Non-Toxic"}, {"measurement": "Activity", "setting": "[39]", "result": "Non-Toxic"}]}
